Source: patent US6403816B1 (Dabur Research Foundation, priority 1997, dated 2002)

Legend:
[1] = system: human melanoma cell lines, Mel-1, Mel-2, and Mel-4; details: Mel-1, Mel-2, Mel-4; cited from earlier work
MEL-2 cells = details: cited from earlier work
[2] = system: A431, BC-1, COL-2, HT1080, KB, LNCaP, LU-1, U373, ZR-75-1; details: cited from earlier work
PA-1 = assay: Tumor cell cytotoxicity assay, ovary; format: cell-based
Text: (§1) The cytotoxicity assays for tumor cells have been described in detail in our application Ser. No. 09/040,856 filed in U.S. on Mar. 18, 1998.

HT-29 = assay: Tumor cell cytotoxicity assay, colon; format: cell-based
Text: as §1

L132 = assay: Tumor cell cytotoxicity assay, lung; format: cell-based
Text: as §1

ECV304 [3] = assay: Tube-like-structure (TLS) formation of ECV304 cells on Matrigel; format: cell-based, human; details: 24-48 hours
Protocol: Matrigel (70 μl) was placed into each well of a 96-well culture plate at 4° C. and was allowed to polymerize by incubation at 37° C. for 30 min. ECV304 (1×10^4) cells were seeded on the Matrigel in 200 μl DMEM containing 10% FBS. […] Five different phase-contrast microscopic fields (4×) were viewed and total tube area of the tube-like-structures (TLS) measured using Video Pro 32 Image Analysis system. Percent reduction in total tube area was given as the mean of the data from five fields. Percent inhibition of TLS was calculated with reference to Controls(no drug).

ECV304 [4] = assay: ECV304 endothelial cell proliferation, MTT assay; format: cell-based, human; details: concentration causing 50% cytotoxicity; MTT after 72 hours
Protocol: 30 μl of ECV304 cell suspension (50×10^4 cells/ml in RPMI 1640 containing 10% FBS) followed by 150 μl of medium was added to the wells of a 96-well tissue culture plate (Nunc, Denmark) and incubated (37° C., 5% CO2) overnight. […] Each concentration was plated in triplicates. 20μl of medium alone was added to control wells. After 72 hours of incubation an MTT assay (Mosmann, 1983) was performed and percentage inhibition in proliferation of treated cells was calculated with respect to control cells.

DU145 = assay: Tumor cell cytotoxicity assay, prostate; format: cell-based
Text: as §1

[5] = concentration causing 50% cytotoxicity

Row | SMILES | Growth of melanoma cell lines [1] | In vitro growth of MEL-2 cells (MEL-2 cells) | ED50, other cell lines tested [2] | Ovary ECS Ratio (PA-1; ED50 PA-1 / ED50 ECV304) | Ovary PA-1 (ED50) (PA-1; [5]) | Colon ECS Ratio (HT-29; ED50 HT-29 / ED50 ECV304) | Colon HT-29 (ED50) (HT-29; [5]) | Lung ECS Ratio (L132; ED50 L132 / ED50 ECV304) | Lung L132 (ED50) (L132; [5]) | % reduction in total tube area (ECV304 [3]; 0.5 μg/ml) | % reduction in total tube area (ECV304 [3]; 2 μg/ml) | % reduction in total tube area (ECV304 [3]; 4 μg/ml) | Endothelial ECV304 (ED50) (ECV304 [4]) | Prostate ECS Ratio (DU145; ED50 DU145 / ED50 ECV304) | Prostate DU145 (ED50) (DU145; [5])
1 | C=C(C)[C@@H]1CC[C@]2(C(=O)O)CC[C@]3(C)[C@H](CC[C@@H]4[C@@]5(C)CC[C@H](O)C(C)(C)[C@@H]5CC[C@]43C)[C@@H]12 [Betulinic acid] | inhibited significantly | inhibit in vitro growth | greater than 20 μg/ml |  |  |  |  |  |  |  |  |  |  |  | 
2 | CC(C)C1CCC2(C(=O)O)CCC3(C)C(CCC4C5(C)CCC(OC(=O)c6ccc(F)cc6F)C(C)(C)C5CCC43C)C12 (stereo not drawn) [MJ937-RS] |  |  |  | 2.3 | 1.6 µg/mL | 2.4 | 1.7 µg/mL | 1.5 | 1.1 µg/mL | 16.7% | 21% | 21.7% | 0.7 µg/mL | 3.5 | 2.5 µg/mL
